We go through two molecules from US9579316B2, “Salts of 2-amino-1-hydroxyethyl-8-hydroxyquinolin-2(1H)-one derivatives having both muscarinic receptor antagonist and β2 adrenergic receptor agonist activities” (priority 2013, dated 2017).

Data set [1] is described as follows: Thermogravimetric (TG) analysis. Format: physicochemical. The following applies: for TG analysis: temperature until which no significant changes are observed (then loss of mass / decomposition): heated at 10° C./min between 30 and 300° C., nitrogen flow. The method, then:
Thermogravimetric analyses were recorded in a Mettler Toledo SDTA851e. Samples of 1-3 mg were weighted (using a microscale MX5, Mettler) 40 μL aluminium crucibles with a pinhole lid, and were heated at 10° C./min between 30 and 300° C., under nitrogen flow (50 mL/min). Data collection and evaluation was done with software STARe.

Data set [2] can be described thus: Differential scanning calorimetry (DSC) analysis. Format: physicochemical. Here is the method:
DSC analyses were recorded either in a Mettler Toledo DSC822e or using a DSC-821 Mettler-Toledo, serial number 5117423874. In the case of a Mettler Toledo DSC822e equipment, samples of 1-3 mg were weighted (using a microscale MX5, Mettler) into 40 μL aluminium crucibles with a pinhole lid, and were heated, under nitrogen flow (50 mL/min), from 30 to 300° C. at a heating rate of 10° C./min. Data collection and evaluation was done with software STARe. In case of a DSC-821 Mettler-Toledo, serial number 5117423874 equipment, samples were weighed into an aluminium pan, an aluminium pinhole lid placed on top of the sample and compressed with a brass rod. Samples were equilibrated at 25° C. and heated at 10° C./min to 300° C. The instrument was calibrated using indium and zinc standards.
On the technique in general: DSC measures the heat that a sample takes up or gives off during a temperature scan.

The structures appear in SMILES notation.

Regarding `CN(CCCn1c(=O)sc2cc(CNC[C@H](O)c3ccc(O)c4[nH]c(=O)ccc34)ccc21)[C@H]1CC[C@H](OC(=O)C(O)(c2cccs2)c2cccs2)CC1.O=C(O)/C=C/C(=O)O` [Example 2, trans-4-[{3-[6-({[(2R)-2-hydroxy-2-(8-hydroxy-2-oxo-1,2-dihydroquinolin-5-yl)ethyl]amino}methyl)-2-oxo-1,3-benzothiazole-3(2H)-yl]propyl}(methyl)amino]cyclohexyl hydroxy(di-2-thienyl)acetate fumarate], the “TG analysis: temperature until which no significant changes are observed (then loss of mass / decomposition)” value in data set [1] is “about 140 °C”. For the same molecule, the “stability (no conversion into other polymorphs, no decomposition below the DSC endotherm)” value in data set [2] was “high stability”. Besides, the “DSC endothermic curve maximum (possible fusion/decomposition of the salt)” value in data set [2] (heating rate 10° C./min) came out at 134 °C.
For `CN(CCCn1nnc2cc(CNC[C@H](O)c3ccc(O)c4[nH]c(=O)ccc34)ccc21)[C@H]1CC[C@H](OC(=O)C(O)(c2cccs2)c2cccs2)CC1.O=C1NS(=O)(=O)c2ccccc21` (relative stereo) [Example 1, trans-4-[{3-[5-({[(2R)-2-hydroxy-2-(8-hydroxy-2-oxo-1,2-dihydroquinolin-5-yl)ethyl]amino}methyl)-1H-1,2,3-benzotriazole-1-yl]propyl}(methyl)-amino]cyclohexyl hydroxy(di-2-thienyl)acetate saccharinate], the “TG analysis: temperature until which no significant changes are observed (then loss of mass / decomposition)” value in data set [1] is 130-140 °C. For the same molecule, in data set [1] (no change prior to 140° C., in particular at 80-100° C.), the “hygroscopicity (no solvent/water release in TG)” value is “lack of hygroscopicity”. The “stability (no conversion into other polymorphs, no decomposition below the DSC endotherm)” value in data set [2] is listed as “high stability”. For the same molecule, in data set [2] (heating rate 10° C./min), the “DSC endothermic curve onset (possible decomposition of the salt)” value was “about 170 °C”.
